In one data set the target is T1, σ2 receptor (Rattus norvegicus, UniProt Q5U3Y7).
T1 sequence (Q5U3Y7 1-176): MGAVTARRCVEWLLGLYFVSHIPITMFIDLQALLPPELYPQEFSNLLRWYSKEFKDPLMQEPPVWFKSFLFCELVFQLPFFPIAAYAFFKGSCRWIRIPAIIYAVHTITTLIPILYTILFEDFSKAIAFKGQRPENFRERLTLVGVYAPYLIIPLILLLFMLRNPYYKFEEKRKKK
In words: σ2 receptor competitive binding with [^3H]RHM-1. The settings on record: Ki of σ1/σ2 ratio.

The target in another data set is 5-HT3. The note with it: read-out: Ki 5-HT3; cited from earlier work.
Another data set concerns the target 5-HT4. The settings on record: read-out: Ki 5-HT4; cited from earlier work.
Another data set concerns MDA-MB435 cells. Kind of data set: colony formation. Format: cell-based, human.
The subject of another data set is EMT-6 cells. In words: colony formation. Type of data set: cell-based, mouse.
The subject of the next data set is Panc-02. The settings on record: cited from earlier work.

Consider four compounds from publication PMC2670245 (Bioorganic & medicinal chemistry, 2008).

In general, Ki refers to a measure of affinity in units of concentration, obtained from inhibition or displacement.

Entries after “also recorded” stand apart in the source; their conditions may differ.

With `COc1ccc(C)cc1NC(=O)OC1CC2CCCC(C1)N2Cc1ccc(CCF)cc1` (centres unmarked) [WC-59, 9-(4-(2-Fluoroethyl)benzyl)-9-azabicyclo[3.3.1]nonan-3-yl-2-methoxy-5-methyl-phenylcarbamate], the “σ1/σ2 (Ki ratio)” value on σ2 receptor is reported as 2,087.

`COc1ccc(C)cc1NC(=O)OC1CC2CCCC(C1)N2Cc1ccccc1` (centres unmarked) [Compound 6, 9-Benzyl-9-azabicyclo[3.3.1]nonan-3-yl-2-methoxy-5-methylphenylcarbamate]: the Ki on 5-HT3 and at 5-HT4 was above 1000 nM throughout.

`COc1cccc2c1C(=O)c1c(O)c3c(c(O)c1C2=O)C[C@@](O)(C(=O)CO)C[C@@H]3O[C@H]1C[C@H](N)[C@H](O)[C@H](C)O1` [DOX, doxorubicin, reference compound]: the “tumor cell kill as single agent” value in the data set on MDA-MB435 cells (MDA-MB435, DOX <20 μM, 24 h) is reported as “no tumor cell kill”; with EMT-6 cells (EMT-6, DOX <20 μM, 24 h) it was “no tumor cell kill”.

For `COc1ccc(C)cc1NC(=O)OC1CC2CCCC(C1)N2Cc1ccc(N(C)C)cc1` (centres unmarked) [WC-26, 9-(4-(Dimethylamino)benzyl)-9-azabicyclo[3.3.1]nonan-3-yl-2-methoxy-5-methyl-phenylcarbamate], the “apoptosis in treated tumors” value in the data set on Panc-02 (flow cytometry) is on record as “dose-dependent increases in apoptosis”. The systemic toxicity result in the data set on Panc-02 (treated mice) was “no evidence of systemic toxicity”. Further, the “clonogenic survival, combination with DOX compared to DOX alone” value in the data set on MDA-MB435 cells (MDA-MB435, 2 μM WC-26 16 h, then range of DOX concentrations added for 24 h) is listed as “large decrease in clonogenic survival”; in the data set on EMT-6 cells (EMT-6, 2 μM WC-26 16 h, then range of DOX concentrations added for 24 h), “large decrease in clonogenic survival”. The “cell kill as single agent” value is “no measureable cell kill; also recorded: no tumor cell kill” in the data set on MDA-MB435 cells (MDA-MB435, 2 μM WC-26 alone, 40 h) and “no measureable cell kill; also recorded: no tumor cell kill” with EMT-6 cells (EMT-6, 2 μM WC-26 alone, 40 h).
